Measured values from ChEMBL document CHEMBL1201862, “PubChem BioAssay data set” (2004).
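Grown in 96-well plates, cells were treated for 48 hours with each compound at five concentrations. Insufficient inhibition: endpoint recorded as highest concentration tested. The concentration for 50% growth inhibition is given as GI50.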 The source made the active and inactive calls. Rule as the data show it: active = GI50 up to about 1.1 µM and inactive = higher.

Key:
Test in all cases: inhibition of tumour cell growth, NCI panel, 48 h
[1] = tested on: HCT-15
[2] = tested on: PC-3
[3] = tested on: MDA-MB-231
[4] = tested on: KM12
[5] = tested on: SR
[6] = tested on: Hs-578T
[7] = tested on: UACC-62
[8] = tested on: SK-MEL-5
[9] = tested on: SF-539
[10] = tested on: T47D
[11] = tested on: NCI-H460
[12] = tested on: RXF 393
[13] = tested on: A549
[14] = tested on: SK-OV-3
[15] = tested on: RPMI-8226
[16] = tested on: MCF7
[17] = tested on: SF-295
[18] = tested on: HOP-62
[19] = tested on: 786-0

Row | Compound | GI50 [1] [µM] | GI50 [2] | GI50 [3] | GI50 [4] | GI50 [5] | GI50 [6] | GI50 [7] | GI50 [8] | GI50 [9] | GI50 [10] | GI50 [11] | GI50 [12] | GI50 [13] | GI50 [14] | GI50 [15] | GI50 [16] | GI50 [17] | GI50 [18] | GI50 [19]
1 | C[N+](C)(C)CCN(Cc1cccs1)c1ccccn1 | > 100 | > 100 µM (inactive) | > 100 µM (inactive) | > 100 µM (inactive) | > 100 µM (inactive) | 74.5 µM (inactive) | > 100 µM (inactive) | > 100 µM (inactive) | > 100 µM (inactive) | > 100 µM (inactive) | > 100 µM (inactive) | > 100 µM (inactive) | 68.9 µM (inactive) | > 100 µM (inactive) | > 100 µM (inactive) | > 100 µM (inactive) | > 100 µM (inactive) | > 100 µM (inactive) | > 100 µM (inactive)
2 | Oc1cc(-c2ccccc2)cn2c1nc1ccccc12 | 0.643 | 3.85 µM (inactive) | 0.382 µM (active) | 1.5 µM (inactive) | 3.21 µM (inactive) | 2.19 µM (inactive) | 0.33 µM (active) | 0.476 µM (active) | 2.59 µM (inactive) | 1.5 µM (inactive) | 0.76 µM (active) | > 22 µM (inactive) | 1.73 µM (inactive) | 1.09 µM (active) | 2.3 µM (inactive) | 1.22 µM (inactive) | 6 µM (inactive) | 2.4 µM (inactive) | 3.21 µM (inactive)
3 | O=C1C=C(Br)c2c(Br)sc(Br)c21 | 5.61 | 10.9 µM (inactive) | 17.2 µM (inactive) | 17 µM (inactive) | 2.9 µM (inactive) | 30.2 µM (inactive) | 14 µM (inactive) | 16.3 µM (inactive) | 5.13 µM (inactive) | 7.13 µM (inactive) | 19.6 µM (inactive) | 8.18 µM (inactive) | 24.5 µM (inactive) | 21.4 µM (inactive) | 2.99 µM (inactive) | 3.85 µM (inactive) | 31.6 µM (inactive) | 24.9 µM (inactive) | 2.53 µM (inactive)
4 | Oc1cn(-c2ccc(Cl)cc2)nc1-c1n[nH]c(=S)n1-c1ccccc1 | 3.36 | 27.5 µM (inactive) | 57.5 µM (inactive) | 4.36 µM (inactive) | 2.97 µM (inactive) | 7.64 µM (inactive) | 11.4 µM (inactive) | 4.19 µM (inactive) | 5.92 µM (inactive) | 19.5 µM (inactive) | 10.6 µM (inactive) | 11.1 µM (inactive) | 14.1 µM (inactive) | 17.2 µM (inactive) | 5.46 µM (inactive) | 4.42 µM (inactive) | 4.94 µM (inactive) | 10 µM (inactive) | 11.6 µM (inactive)
5 | O=C(/C=C(\N=P(c1ccccc1)(c1ccccc1)c1ccccc1)C(F)(F)C(F)(F)C(F)(F)C(F)(F)C(F)(F)C(F)(F)C(F)(F)F)c1ccccc1 | > 100 | > 100 µM (inactive) | > 10 µM (inactive) | > 100 µM (inactive) | > 100 µM (inactive) | > 100 µM (inactive) | > 100 µM (inactive) | > 100 µM (inactive) | > 100 µM (inactive) | > 100 µM (inactive) | > 100 µM (inactive) | > 100 µM (inactive) | > 100 µM (inactive) | > 100 µM (inactive) | > 100 µM (inactive) | > 100 µM (inactive) | > 100 µM (inactive) | > 100 µM (inactive) | > 100 µM (inactive)
6 | O=c1[nH]c(=O)n(C2COC(CO)C2O)cc1F (centres undefined) | 16.4 | 36.1 µM (inactive) | > 100 µM (inactive) | > 100 µM (inactive) | 95.3 µM (inactive) | > 100 µM (inactive) | 22.1 µM (inactive) | 21.4 µM (inactive) | 3.52 µM (inactive) | 50.6 µM (inactive) | 4.98 µM (inactive) | 2.94 µM (inactive) | 17.3 µM (inactive) | 74.6 µM (inactive) | 36.5 µM (inactive) | 8.41 µM (inactive) | 30.5 µM (inactive) | 17.7 µM (inactive) | 70 µM (inactive)
